Results published in patent US7101844B2, “Cytoplasmic transduction peptides and uses thereof” (Creagene, Inc., priority 2002, dated 2006).
Entries after “also recorded” stand apart in the source; their conditions may differ.

Legend:
HeLa cells [1] = assay: Transduction of PTD- and CTP-β-galactosidase into HeLa cells (X-gal staining after fixation); assay type: cell-based; conditions: 100 μg/ml, 1 hr; for transduction potential: β-galactosidase fusion protein, HeLa cells, fixation
Description: Although various other substitutions could be performed, it is essential in this invention that the introduction of a positive charge by arginine and the substitution by an α-helix stabilizing amino acid should be carried out for maintaining the principle function of the PTD peptide. Therefore, as a substitute amino acid, the positively charged amino acid is restricted to arginine, and the negatively charged amino acid is restricted to glutamic acid. β-galactosidase was fused to the CTP candidate peptide, the fusion proteins were isolated and purified (see FIG. 2), and HeLa cells were treated with each of the fusion proteins. This was then followed by an analysis of the transduction potential and a determination of the extent of the cytoplasmic remaining property.
The transduction potential of the PTD and CTP candidates was tested with HeLa cells. Using a 24-well plate (Nunc), 5×10^4 HeLa cells were inoculated into high glucose DMEM (containing 10% FBS) and cultured for 36 hr. The cells were rinsed with PBS and treated with 100 μg/ml of PTD- and CTP-β-galactosidase in an opti-MEM I medium. After 1-hr incubation, cells were fixed for 10 min at room temperature with a fixation solution (2% formaldehyde, 0.2% glutaraldehyde in PBS). Then, the cells were rinsed twice with PBS, and stained for 2 hr with dye (0.1% X-gal, 5 mM potassium ferricyanide, 5 mM potassium ferrocyanide, 2 mM MgCl2 in PBS) to examine their transduction potential (see FIG. 3). The samples showing a low level of staining, even after a 2-hr staining, were incubated overnight, and then stained for the relative transduction potential. The transduction potentials of the PTD and CTP candidates into HeLa cells were seen to be in the following order: PTD5<CTP502<<CTP501=CTP506<CTP507<CTP505<CTP503=CTP504<CTP508=CTP510=MTS<CTP509<<PTD=CTP511<<CTP512.

HeLa cells [2] = assay: Transduction potential of CTP-β-gal following treatment with trypsin (staining); assay type: cell-based; conditions: 50 μg/ml, 20 hr, trypsin before fixation
Experimental: HeLa cells were cultured for 1 day in DMEM (high glucose) at a density of 2×10^5/ml in 48-well plates. Cells were washed once with 1× PBS, and then incubated further for additional 20 hr in OPTI-MEM containing PTD-β-gal, MTS-β-gal, CTP501-β-gal or CTP514-β-gal, respectively, at a concentration of 50 μg/ml. Thereafter, the cells were treated with trypsin-EDTA (10×) for 3 min at 37° C. to remove the CPP-β-gal attached to the cell surface, and then rinsed twice with 1× PBS, followed by fixing with a fixation solution for 10 min at room temperature. After washing twice with 1× PBS, the cells were stained with a staining solution for 2 hr at 37° C. and photographed under a microscope (FIG. 6b).

HeLa cells [3] = assay: Quantitative analysis of the membrane permeability of CTP-β-gal (β-gal activity of lysates of trypsinized cells); assay type: cell-based; conditions: incubation for 20 hr
Experimental: For the quantitatation of the permeability of each CPP-fusion protein, HeLa cells were treated with PTD, MTS and CTP508, 509, 511, 512, 513 and 514, CPP-β-gal fusion proteins for 20 hr as described above, and the cells were trypsinized, followed by measuring the amounts of fusion protein imported into cells. Trypsin-treated cells were washed twice with 10% FBS-containing DMEM (high glucose) to inactivate any residual trypsin activity, and then washed once with 1× PBS. The cells collected by centrifugation were resuspended in a 0.9% Triton-X 100 solution, incubated for 10 min at room temperature to lyse cells, and then the supernatant of each lysate was obtained by centrifugation at 12000 rpm for 2 min. The β-gal activity of each sample was measured at 570 nm using enhanced β-gal assay kit (GTS Inc, USA) and an ELISA reader.

HeLa cells [4] = assay: Transduction potential of FITC-labeled peptides by FACS; assay type: cell-based; conditions: FITC-labeled peptide
Description: It has been shown by trypsin treatment that the transduction potential of the peptides known so far is distorted presumably due to the influence of cell fixation (46). Therefore, to verify that the CTP-β-gal of this invention has genuine transduction potential, trypsinization steps were included in the experiments as described above. At this time, since the activity of CTP per se may be affected by its fusion partner β-gal, CTP labeled with fluorescent molecule instead of β-gal was examined for its transduction capacity into cells. HeLa cells were treated with CTP-FITC and then trypsinized prior to harvest. The amounts of the peptides transduced into the cells were measured by FACS (Fluorescence-activated cell sorter) analysis with FACSCalibur (Becton Dickison, USA).
HeLa cells were inoculated into 12-well plates at a density of 2×10^5/ml and cultured for 1 day at 37° C. […] The cells were washed twice and the fluorescent intensity of each sample was measured by FACS.
In order to examine the transduction potential of peptides at different concentrations, cells were treated for 2 hr with peptides with increasing concentrations of peptides, and then trypsinized before examination. The fluorescent intensity in the cells was measured by FACS.

HeLa cells [5] = assay: Subcellular localization of CTP-FITC by confocal microscope without cell fixation; assay type: cell-based; conditions: FITC-labeled peptide, 25 μg/ml, 1 hr
Description: Fixation step is inevitable for examining the subcellular localization of the transduced β-gal in the cells with antibodies. However, according to the previous reports, the fusion protein attached to cell surface is very likely to be introduced into the cell during a cell fixation procedure, which may affect its transduction potential and its subcellular localization. However, FITC-labeled membrane permeation peptides allow its subcellular localization to be observed under a confocal microscope without cell fixation. Monolayered HeLa cells were treated for 1 hr with FITC-labeled CTP, PTD or MTS at a concentration of 25 μg/ml, and washed three times with HBSS, followed by observation under a confocal microscope without cell fixation.

[6] = tested on: HeLa, L929, RENCA, Jurkat cell lines and splenocytes; assay: Transduction potential of CTP in various cell types; assay type: cell-based, human, mouse; conditions: FITC-labeled peptide
Experimental: The examples described above analyzed the transduction potential solely by the use of HeLa cells. In this Example, the transduction potential of CTP was evaluated with other cell types including mouse cell lines (mouse fibroblast L929 and mouse renal cancer cell line RENCA), human lymphoid T cell line (Jurkat cells) and primary mouse splenocytes.

CTP512: CTP (2G4R8R9R), sequence YGRRARRRRRR; representative CTP used from Example 5-4 on
transduction potential (HeLa cells [1]): higher transduction potential than the wild type PTD; also recorded: significantly high transduction potential
transduction potential (HeLa cells [1]; listed as CTP 512): transduction potential higher than wild type PTD
order of transduction potentials into HeLa cells (HeLa cells [1]; β-galactosidase fusion, X-gal staining): CTP511<<CTP512
β-gal activity transduced into cells (HeLa cells [2]): much more efficient to transduce β-gal into cells than either PTD or MTS
transduction into HeLa cells (HeLa cells [3]): much higher transduction potential than either the PTD or the MTS
transduction potential at the same concentrations (HeLa cells [4]; 2 hr, trypsinized): significantly higher transduction potential than either PTD or MTS
transduction potential over time (HeLa cells [4]; trypsinized cells, FACS): higher transduction potential than the PTD in all period of time
order of transduction potential (HeLa cells [5]): CTP512>513
subcellular localization (HeLa cells [5]): observed only in the cytoplasm, and not in the nucleus
transduction potential in various cell types [6]: highest transduction potential
